# Data published in PubChem BioAssay (NCI).
#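 Grown in 96-well plates, cells were treated for 48 hours with each compound at five concentrations. Insufficient inhibition: endpoint recorded as highest concentration tested. GI50: concentration for 50% inhibition of growth. TGI marks complete inhibition of growth.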
# Legend:
# Assay in all cases: NCI tumour cell line growth inhibition, 48 h
# 786-0 renal = system: 786-0 renal
# A498 renal = system: A498 renal
# A549 NSCLC = system: A549 NSCLC
# ACHN renal = system: ACHN renal
# BT-549 breast = system: BT-549 breast
# CAKI-1 renal = system: CAKI-1 renal
# CCRF-CEM leukemia = system: CCRF-CEM leukemia
# COLO 205 colon = system: COLO 205 colon
# DLD-1 colon = system: DLD-1 colon
# DMS 114 small cell lung = system: DMS 114 small cell lung
# DMS 273 small cell lung = system: DMS 273 small cell lung
# DU-145 prostate = system: DU-145 prostate
# EKVX NSCLC = system: EKVX NSCLC
# HCC-2998 colon = system: HCC-2998 colon
# HCT-116 colon = system: HCT-116 colon
# HCT-15 colon = system: HCT-15 colon
# HL-60(TB) leukemia = system: HL-60(TB) leukemia
# HOP-18 NSCLC = system: HOP-18 NSCLC
# HOP-62 NSCLC = system: HOP-62 NSCLC
# HOP-92 NSCLC = system: HOP-92 NSCLC
# HS 578T breast = system: HS 578T breast
# HT29 colon = system: HT29 colon
# IGROV1 ovarian = system: IGROV1 ovarian
# K-562 leukemia = system: K-562 leukemia
# KM12 colon = system: KM12 colon
# KM20L2 colon = system: KM20L2 colon
# LOX IMVI melanoma = system: LOX IMVI melanoma
# M14 melanoma = system: M14 melanoma
# M19-MEL melanoma = system: M19-MEL melanoma
# MALME-3M melanoma = system: MALME-3M melanoma
# MCF7 breast = system: MCF7 breast
# MDA-MB-231 breast = system: MDA-MB-231 breast
# MDA-MB-435 = system: MDA-MB-435
# MDA-N = system: MDA-N
# MOLT-4 leukemia = system: MOLT-4 leukemia
# NCI-H226 lung = system: NCI-H226 lung
# NCI-H23 lung = system: NCI-H23 lung
# NCI-H460 lung = system: NCI-H460 lung
# NCI-H522 lung = system: NCI-H522 lung
# NCI/ADR-RES ovarian = system: NCI/ADR-RES ovarian
# OVCAR-3 ovarian = system: OVCAR-3 ovarian
# OVCAR-4 ovarian = system: OVCAR-4 ovarian
# OVCAR-5 ovarian = system: OVCAR-5 ovarian
# OVCAR-8 ovarian = system: OVCAR-8 ovarian
# P388 leukemia = system: P388 leukemia
# P388/ADR leukemia = system: P388/ADR leukemia
# PC-3 prostate = system: PC-3 prostate
# RPMI-8226 leukemia = system: RPMI-8226 leukemia
# RXF 393 renal = system: RXF 393 renal
# SF-268 CNS = system: SF-268 CNS
# SF-295 CNS = system: SF-295 CNS
# SF-539 CNS = system: SF-539 CNS
# SK-MEL-2 melanoma = system: SK-MEL-2 melanoma
# SK-MEL-28 melanoma = system: SK-MEL-28 melanoma
# SK-MEL-5 melanoma = system: SK-MEL-5 melanoma
# SK-OV-3 ovarian = system: SK-OV-3 ovarian
# SN12C renal = system: SN12C renal
# SN12K1 renal = system: SN12K1 renal
# SNB-19 CNS = system: SNB-19 CNS
# SNB-75 CNS = system: SNB-75 CNS
# SNB-78 CNS = system: SNB-78 CNS
# SW-620 colon = system: SW-620 colon
# T-47D breast = system: T-47D breast
# TK-10 renal = system: TK-10 renal
# U251 CNS = system: U251 CNS
# UACC-257 melanoma = system: UACC-257 melanoma
# UACC-62 melanoma = system: UACC-62 melanoma
# UO-31 renal = system: UO-31 renal
# XF 498 CNS = system: XF 498 CNS
smiles,measurement,setting,value
O=C(O)CC(NC(=O)CP(=O)(O)O)C(=O)O (stereo not given),GI50,786-0 renal,71 µM
same,TGI,786-0 renal,> 6 mM
same,TGI,A498 renal,> 9.87 mM
same,GI50,A549 NSCLC,95.7 µM
same,TGI,A549 NSCLC,4.25 mM
same,TGI,ACHN renal,> 10 mM
same,TGI,BT-549 breast,> 10 mM
same,GI50,CAKI-1 renal,272 µM
same,TGI,CAKI-1 renal,7.24 mM
same,TGI,CCRF-CEM leukemia,> 10 mM
same,TGI,COLO 205 colon,> 10 mM
same,TGI,DLD-1 colon,9.92 mM
same,TGI,DMS 114 small cell lung,> 10 mM
same,TGI,DMS 273 small cell lung,> 9.02 mM
same,TGI,DU-145 prostate,> 10 mM
same,TGI,EKVX NSCLC,7.86 mM
same,TGI,HCC-2998 colon,> 10 mM
same,GI50,HCT-116 colon,54.6 µM
same,TGI,HCT-116 colon,> 10 mM
same,TGI,HCT-15 colon,9.16 mM
same,TGI,HL-60(TB) leukemia,> 10 mM
same,TGI,HOP-18 NSCLC,> 9.69 mM
same,TGI,HOP-62 NSCLC,3.76 mM
same,TGI,HOP-92 NSCLC,2.38 mM
same,GI50,HS 578T breast,74.5 µM
same,TGI,HS 578T breast,> 10 mM
same,TGI,HT29 colon,> 10 mM
same,TGI,IGROV1 ovarian,> 8.28 mM
same,TGI,K-562 leukemia,> 10 mM
same,GI50,KM12 colon,95.5 µM
same,TGI,KM12 colon,> 10 mM
same,TGI,KM20L2 colon,> 10 mM
same,TGI,LOX IMVI melanoma,824 µM
same,TGI,M14 melanoma,> 10 mM
same,TGI,M19-MEL melanoma,> 10 mM
same,TGI,MALME-3M melanoma,> 8.47 mM
same,TGI,MCF7 breast,> 10 mM
same,TGI,MDA-MB-231 breast,> 10 mM
same,GI50,MDA-MB-435,48.8 µM
same,TGI,MDA-MB-435,> 10 mM
same,GI50,MDA-N,54.1 µM
same,TGI,MDA-N,> 10 mM
same,TGI,MOLT-4 leukemia,6.91 mM
same,TGI,NCI-H226 lung,7.21 mM
same,TGI,NCI-H23 lung,> 10 mM
same,GI50,NCI-H460 lung,79.5 µM
same,TGI,NCI-H460 lung,> 8.67 mM
same,GI50,NCI-H522 lung,78.3 µM
same,TGI,NCI-H522 lung,9.91 mM
same,TGI,NCI/ADR-RES ovarian,> 10 mM
same,TGI,OVCAR-3 ovarian,> 10 mM
same,TGI,OVCAR-4 ovarian,> 10 mM
same,TGI,OVCAR-5 ovarian,> 10 mM
same,TGI,OVCAR-8 ovarian,> 8.11 mM
same,TGI,P388 leukemia,> 5.86 mM
same,TGI,P388/ADR leukemia,> 8.35 mM
same,TGI,PC-3 prostate,> 10 mM
same,TGI,RPMI-8226 leukemia,> 10 mM
same,GI50,RXF 393 renal,90.5 µM
same,TGI,RXF 393 renal,> 10 mM
same,GI50,SF-268 CNS,95.8 µM
same,TGI,SF-268 CNS,> 10 mM
same,TGI,SF-295 CNS,> 10 mM
same,GI50,SF-539 CNS,89.5 µM
same,TGI,SF-539 CNS,> 10 mM
same,TGI,SK-MEL-2 melanoma,> 10 mM
same,GI50,SK-MEL-28 melanoma,389 µM
same,TGI,SK-MEL-28 melanoma,> 10 mM
same,TGI,SK-MEL-5 melanoma,> 10 mM
same,TGI,SK-OV-3 ovarian,> 7.93 mM
same,TGI,SN12C renal,> 9.02 mM
same,TGI,SN12K1 renal,> 10 mM
same,GI50,SNB-19 CNS,72.6 µM
same,TGI,SNB-19 CNS,> 10 mM
same,TGI,SNB-75 CNS,> 10 mM
same,TGI,SNB-78 CNS,> 10 mM
same,TGI,SW-620 colon,> 10 mM
same,TGI,T-47D breast,> 10 mM
same,TGI,TK-10 renal,> 10 mM
same,TGI,U251 CNS,> 10 mM
same,GI50,UACC-257 melanoma,3.15 mM
same,TGI,UACC-257 melanoma,> 10 mM
same,TGI,UACC-62 melanoma,6.64 mM
same,TGI,UO-31 renal,> 10 mM
same,TGI,XF 498 CNS,> 3.16 mM
